The source of these data is patent publication US20050234113A1, “Antioxidant and radical scavenging activity of synthetic analogs of desferrithiocin” (University of Florida Research Foundation, Inc., priority 2002, published 2005).

Each structure is given as a SMILES string. “Also recorded” adds a separate entry of the source. Marks after values point to notes of the source that are not given here.

Assay [1] is described as follows: Quenching of the ABTS radical cation.
Assay [2] has as its system acetic acid-induced colitis. The assay can be described thus: Acetic acid-induced colitis in rats, densitometric image analysis of colonic damage. It is filed as in vivo. The procedure:
(§1) The ligands were administered to the rats intracolonically as a suspension or solution in distilled water (2 mL) at a dose of 650 μmol kg^−1. The drug solutions were made fresh for each experiment. ROWASA®, the pharmaceutical preparation which contains 5-ASA (2 mL, 66.7 mg mL^−1) was given at a dose of 2318 μmol kg^−1. Control rats received distilled water (2 mL), administered intracolonically.
(§2) Animal care and experimental procedures were approved by the Institutional Animal Care and Use Committee. Colitis was induced by a modification of published methods. Briefly, the rats were anesthetized with sodium pentobarbital, 55 mg kg^−1 intraperitoneally. The abdomen was shaved and prepared for surgery. A midline incision was made, and the cecum and proximal colon were exteriorized. A reversible suture was placed at the junction of the cecum and proximal colon. The colon was rinsed with saline (10 mL), and the fluid and intestinal contents were gently expressed out the rectum. A gum-based rectal plug was inserted. The compound of interest, or distilled water in the control animals (2 mL), was injected intracolonically just distal to the ligature. The cecum and proximal colon were returned to the abdominal cavity; the compound was allowed to remain in the gut for 30 min. Then, the cecum and proximal colon were reexteriorized. The rectal plug was removed, and the drug was gently expressed out of the colon. Acetic acid (4%, 2 mL) was injected into the proximal colon over a 15-20-second time period. The acid was allowed to remain in the gut until one minute had passed (i.e., 40-45 seconds after the end of the acid administration). The no acid control rats received distilled water (2 mL), which was administered in the same manner as was the acetic acid. Air (10 mL) was then injected into the proximal colon to expel the acid or water. The cecal/proximal colon ligature was removed, the gut was returned to the abdominal cavity, and the incisions were closed. The animals were allowed to recover overnight and were sacrificed 24 hr later. The entire length of the colon was removed and assessed for damage both densitometrically and biochemically.
Gross damage was quantitated using Photoshop-based image analysis (version 5.0, Adobe Systems, Mountain View, Calif., USA) on an Apple iMac computer. The Magic Wand tool in the Select menu of Photoshop was used to place the cursor on an area of obvious damage. The tolerance level of the Magic Wand tool was set at 30. The damaged areas were automatically selected by using the Similar command in the Select menu. Then, the Eyedropper tool was used to determine the range of the damage in the highlighted areas. Individual colon images were copied to a blank Photoshop page. The Magic Wand tool, with a tolerance set to 100, was used to select all of the pixels in the colon sample. Then, the Histogram tool, which generates a graph in which each vertical line represents the number of pixels associated with a brightness level, was selected in the Image menu. The Red channel was then selected; the darker (damaged areas) appear on the left side of the histogram and the lighter (normal) areas are on the right side. The cursor was then placed on the histogram, the color range determined in an earlier step was selected, and the number of pixels encompassing that range and the percent damage were quantified automatically.
Two means were employed to assess the damage to the colon in the presence and absence of ligand, computer-based image analysis and colonic MPO measurement. The densitometric method removes much of the subjectivity involved in the simple scoring approaches. A digital image of the prepared colonic tissue is taken, and a clearly damaged segment is highlighted on the screen. Once the computer identifies all other segments of the intestine with the same or greater damage, a pixel number is generated; this number makes it possible to calculate the percentage of damaged intestine.

Assay [3] deals with Myeloperoxidase (MPO) activity in colonic tissue. Description: Myeloperoxidase (MPO) assay in colonic tissue of rats with acetic acid-induced colitis. It is filed as in vivo. To be noted: 650 μmol kg^−1 intracolonically 30 min before 4% acetic acid, mean ± standard deviation. The procedure:
as §1, §2
The activity of MPO was measured in colonic tissue by a modification of the method of Krawisz et al. in Gastroenterology 87, 1344-1350 (1984). Each excised colon was homogenized in 9 volumes of homogenization buffer (0.5% hexadecyltrimethylammonium bromide (HDTMA) in 50 mM sodium acetate, pH 6.0); this homogenate was centrifuged at 1200 g for 20 min at 4° C. A sample of the supernatant (1.8 mL) was transferred into a microcentrifuge tube and stored frozen at −20° C. for up to one week. Prior to assay, the thawed aliquot was centrifuged at about 10,000 g for 15 minutes at 4° C. The final supernatant (33 μL) was added to a solution of o-dianisidine HCl (0.17 mg mL^−1 in 50 mM sodium acetate, pH 6.0, made fresh daily and filtered immediately before use) (950 μL), the mixture was vortexed, and the peroxidase reaction was initiated by the addition of H2O2 to 50 mM sodium acetate, pH 6.0, made fresh daily (16.7 μL). The A470 at room temperature (ca. 23° C.) was read at 15-second intervals for 2 min. The rates were assessed graphically and are presented as change in milliabsorbance units (ΔmAU)/min per g tissue. Under these conditions, 0.1 “Unit” of purified human leukocyte myeloperoxidase (Sigma M-6908) produced a ΔA470 of about 400 mAU/min.
The biochemical measurement involves measuring the level of MPO in a sample of homogenate of the whole rat colon. When the colon is damaged by the acetic acid, there is an extravasation of neutrophils. The extent of this infiltration can serve as a quantitative marker for tissue damage. Although other leukocytes, such as eosinophils and monocytes, also contribute to the inflammatory response, their contribution is small; the majority of the cells recruited during the acute inflammatory response are neutrophils. […]

Assay [4] is described as follows: Quenching of the ABTS radical cation. To be noted: Table 5; 6-min reaction, initial OD 1.000.
For assay [5], the system named is iron-loaded hepatocytes. To be noted: cited from earlier work.
Assay [6] is described as follows: Prevention of iron-mediated oxidation of ascorbate (ascorbate-mediated reduction of Fe(III)). To be noted: ascorbate 100 μM, FeCl3 30 μM, pH 7.4, ligand/Fe ratios 0-3, 40 min.
The mark [7] stands for this setting: Table 1, A734, six-minute reaction, pH 7.4, 1.25 to 15 μM.

For the compound `C[C@]1(C(=O)O)CSC(c2ccc(O)cc2O)=N1` [4′-(HO)-DADFT], the “Slope × 10^3 OD units/μM (ABTS radical cation quenching)” value (“Slope × 10^3 OD units/μM” below) in assay [1] (setting [7]) is given as −105.6 × 10^3 OD units/μM; in assay [4] it was −106 × 10^3 OD units/μM. Also, the “Damage (%)” value in assay [2] (650 μmol kg^−1 intracolonically 30 min before 4% acetic acid, mean ± standard deviation) was 62 ± 10%. Besides, the “protection against acetic acid-induced colonic damage (in words)” value in assay [2] (intracolonic, image analysis and MPO assay) was “did not protect”. The MPO activity in assay [3] is 64192 ± 30802 mAU min^−1g of colonic tissue^−1.

On to `C[C@]1(C(=O)O)CSC(c2ncccc2O)=N1` [DFT, desferrithiocin], for which the “Slope × 10^3 OD units/μM” value in assay [1] (setting [7]) is recorded as −0.9 × 10^3 OD units/μM. The “effect on iron-mediated oxidative DNA damage (in words)” value in assay [5] is recorded as “prevented damage”.

Take `Cc1c(O)c(=O)ccn1C` [Compound L1, 1,2-Dimethyl-3-hydroxypyridin-4-one, reference compound]: the “effect on ascorbate-mediated reduction of Fe(III) (in words)” value in assay [6] is on record as “promoted the reaction; also recorded: promoted ascorbate-mediated reduction of Fe(III)”; in assay [6] (listed as 1,2-dimethyl-3-hydroxypyridin-4-one), “increased the rate of iron(III) reduction”. The “Slope × 10^3 OD units/μM” value is recorded as −52.9 × 10^3 OD units/μM in assay [1] (setting [7]) and −53^b × 10^3 OD units/μM in assay [1] (Table 3, A734, 6-min reaction, values marked b are the inventors' unpublished results). The “effect on iron-mediated oxidative DNA damage (in words)” value in assay [5] is “potentiated iron-mediated oxidative DNA damage”.
